Assay results as given in patent US20070004791A1, “3,6-disubstituted azabicyclo {3.1.0} hexane derivatives useful as muscarnic receptor antagonists” (priority 2002, published 2007).
Structures can show the parent of a compound that is named as a salt.

How the values were obtained:
M2 muscarinic receptor = molecular target: T1, M2 muscarinic receptor (Rattus norvegicus, UniProt P10980); assay: biochemical; format: binding; conditions: for Ki: Receptor Binding Assay M2 pKi
T1 construct: Submandibular glands and heart were isolated and placed in ice cold homogenising buffer; from tissue; host or cells: rat heart membrane homogenate
T1 sequence (P10980 1-466): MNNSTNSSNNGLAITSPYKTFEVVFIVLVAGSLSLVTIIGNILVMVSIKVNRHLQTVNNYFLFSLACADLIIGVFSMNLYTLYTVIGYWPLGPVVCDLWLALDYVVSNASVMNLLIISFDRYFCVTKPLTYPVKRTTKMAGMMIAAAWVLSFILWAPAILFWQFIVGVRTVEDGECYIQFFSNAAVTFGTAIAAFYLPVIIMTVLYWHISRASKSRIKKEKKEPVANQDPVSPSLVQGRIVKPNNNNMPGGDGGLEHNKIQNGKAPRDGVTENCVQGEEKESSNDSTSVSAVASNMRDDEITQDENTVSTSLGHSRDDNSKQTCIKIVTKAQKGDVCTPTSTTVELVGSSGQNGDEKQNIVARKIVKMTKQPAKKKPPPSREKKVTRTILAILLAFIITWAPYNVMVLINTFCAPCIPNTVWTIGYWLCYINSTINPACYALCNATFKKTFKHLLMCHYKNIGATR

M3 muscarinic receptor [1] = molecular target: T2, M3 muscarinic receptor (Rattus norvegicus, UniProt P08483); assay: biochemical; conditions: Receptor Binding Assay M3 pKi
T2 sequence (P08483 whole entry): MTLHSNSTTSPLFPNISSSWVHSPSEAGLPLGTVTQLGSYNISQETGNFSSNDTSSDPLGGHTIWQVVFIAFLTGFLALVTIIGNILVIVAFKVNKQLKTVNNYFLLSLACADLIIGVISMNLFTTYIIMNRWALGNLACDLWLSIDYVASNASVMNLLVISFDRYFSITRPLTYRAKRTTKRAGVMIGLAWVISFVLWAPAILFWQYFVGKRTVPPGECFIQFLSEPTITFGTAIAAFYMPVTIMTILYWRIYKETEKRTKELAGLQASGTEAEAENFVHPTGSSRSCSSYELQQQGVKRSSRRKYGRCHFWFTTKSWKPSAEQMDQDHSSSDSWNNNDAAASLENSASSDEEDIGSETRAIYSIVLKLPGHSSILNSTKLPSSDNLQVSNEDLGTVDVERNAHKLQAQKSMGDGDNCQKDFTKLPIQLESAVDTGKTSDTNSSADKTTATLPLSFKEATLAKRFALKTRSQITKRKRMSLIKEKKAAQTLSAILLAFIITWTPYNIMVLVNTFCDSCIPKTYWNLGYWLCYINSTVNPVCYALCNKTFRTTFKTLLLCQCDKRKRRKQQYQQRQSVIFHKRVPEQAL

M3 muscarinic receptor [2] = molecular target: T2, M3 muscarinic receptor

With CC(C)=CCN1C[C@@H]2[C@@H](CNC(=O)C(O)(c3ccccc3)C3CCCCC3)[C@@H]2C1 (stereo partly drawn) [Compound No. 39, (1α,5α,6α)-N-[3-(3-methyl-2-butenyl)-3-azabicyclo[3.1.0]hexyl-6-(aminomethyl)yl]-2-hydroxy-2-cyclohexyl-2-phenylacetamide] the Ki (M2 muscarinic receptor) was 16.2 nM, the Ki (M3 muscarinic receptor [1]) was 4.37 nM and the “Receptor Binding Assay Selectivity M2/M3” value (M3 muscarinic receptor [2]) was 3.7.

For O=C(NC[C@@H]1[C@H]2CN(Cc3cccnc3)C[C@@H]12)C(O)(c1ccccc1)c1ccccc1 [Compound No. 49, (1α,5α,6α)-N-[3-(3-pyridylmethyl)-3-azabicyclo[3.1.0]hexyl-6-(aminomethyl)-yl]-2-hydroxy-2,2-diphenylacetamide], the Ki (M2 muscarinic receptor) was > 1000 nM and the Ki (M3 muscarinic receptor [1]) was 69.2 nM.

Work on O=C(NCC1C2CN(Cc3ccccc3)CC12)C(O)(c1ccccc1)C1CCCC1 (stereo not drawn) [Compound No. 61, (1α,5α,6α)-N-[3-benzyl-3-azabicyclo[3.1.0]-hexyl-6-(aminomethyl)-yl]-2-hydroxy-2-cyclopentyl-2-phenyl acetamide. L(−) malic acid salt] yielded a Ki (M2 muscarinic receptor) of 43.7 nM and a Ki (M3 muscarinic receptor [1]) of 5.13 nM.

O=C(NC[C@@H]1[C@H]2CN(Cc3ccccc3)C[C@@H]12)C(O)(c1ccccc1)c1ccccc1 [Compound No. 1, (1α,5α,6α)-N-[3-benzyl-3-azabicyclo[3.1.0]hexyl-6-(aminomethyl)-yl]-2-hydroxy-2,2-diphenyl acetamide] was tested, and the Ki (M2 muscarinic receptor) was 257 nM, the Ki (M3 muscarinic receptor [1]) was 25.1 nM and the “Receptor Binding Assay Selectivity M2/M3” value (M3 muscarinic receptor [2]) was 10.

In the case of O=C(NC[C@@H]1[C@H]2CN(Cc3ccccc3)C[C@@H]12)[C@](O)(c1ccccc1)C1CCCC1 [Compound No. 29, (2R)-(+)-(1α,5α,6α)-N-[3-benzyl-3-azabicyclo[3.1.0]hexyl-6-(aminomethyl)-yl]-2-hydroxy-2-cyclopentyl-2-phenyl acetamide], the Ki (M2 muscarinic receptor) is reported as 12.3 nM, the Ki (M3 muscarinic receptor [1]) is reported as 1.1 nM and the “Receptor Binding Assay Selectivity M2/M3” value (M3 muscarinic receptor [2]) is reported as 11.2.

O=C(NCC1C2CN(Cc3ccccc3)CC12)C(O)(c1ccccc1)C1CCCCC1 (single isomer, unassigned) [Compound No. 28] was tested, and the Ki (M2 muscarinic receptor) was 14.1 nM, the Ki (M3 muscarinic receptor [1]) was 3.98 nM and the “Receptor Binding Assay Selectivity M2/M3” value (M3 muscarinic receptor [2]) was 3.5.

For O=C(NCC1C2CN(Cc3ccccc3)CC12)C(O)(c1ccccc1)C1CCCCC1 (stereo not drawn) [Compound No. 2, (1α,5α,6α)-N-[3-benzyl-3-azabicyclo[3.1.0]hexyl-6-(aminomethyl)-yl]-2-hydroxy-2-cyclohexyl-2-phenyl acetamide], the Ki (M2 muscarinic receptor) was 141 nM, the Ki (M3 muscarinic receptor [1]) was 5.62 nM and the “Receptor Binding Assay Selectivity M2/M3” value (M3 muscarinic receptor [2]) was 25.

For O=C(NC[C@@H]1[C@H]2CN(CCc3ccc4c(c3)CCO4)C[C@@H]12)C(O)(c1ccccc1)C1CCCCC1 (stereo partly drawn) [Compound No. 9, (1α,5α,6α)-N-[3-(2-(2,3-dihydrobenzofuran-5-yl)ethyl)-3-azabicyclo[3.1.0]hexyl-6-(aminomethyl)-yl]-2-hydroxy-2-cyclohexyl-2-phenyl acetamide], the Ki (M2 muscarinic receptor) was 257 nM, the Ki (M3 muscarinic receptor [1]) was 38.9 nM and the “Receptor Binding Assay Selectivity M2/M3” value (M3 muscarinic receptor [2]) was 6.6.

For O=C(NCC1C2CN(Cc3ccccc3)CC12)C(O)(c1ccccc1)C1CCCC1 [Compound No. 34, (1α,5α,6α)-N-[3-benzyl-3-azabicyclo[3.1.0]hexyl-6-(aminomethyl)-yl]-2-hydroxy-2-cyclopentyl-2-phenyl acetamide L-(+)-tartrate salt], the Ki (M2 muscarinic receptor) was 60.3 nM, the Ki (M3 muscarinic receptor [1]) was 5.89 nM and the “Receptor Binding Assay Selectivity M2/M3” value (M3 muscarinic receptor [2]) was 8.

With CC(NC(=O)C(O)(c1ccccc1)c1ccccc1)[C@H]1[C@@H]2CN(Cc3ccccc3)C[C@@H]21 (stereo partly drawn) [Compound No. 23, (1α,5α,6α)-N-[3-benzyl-3-azabicyclo[3.1.0]hexyl-6-(1-aminoethyl)-yl]-2-hydroxy-2,2-diphenyl acetamide] the Ki (M2 muscarinic receptor) was 589 nM, the Ki (M3 muscarinic receptor [1]) was 158 nM and the “Receptor Binding Assay Selectivity M2/M3” value (M3 muscarinic receptor [2]) was 3.7.

O=C(NC[C@@H]1[C@H]2CN(Cc3ccccc3)C[C@@H]12)[C@@](O)(c1ccccc1)C1CCCC1 [Compound No. 32, (2S)-(−)(1α,5α,6α)-N-[3-benzyl-3-azabicyclo[3.1.0]hexyl-6-(aminomethyl)-yl]-2-hydroxy-2-cyclopentyl-2-phenyl acetamide] was tested, and the Ki (M2 muscarinic receptor) was 631 nM, the Ki (M3 muscarinic receptor [1]) was 22.4 nM and the “Receptor Binding Assay Selectivity M2/M3” value (M3 muscarinic receptor [2]) was 28.

In the case of O=C(NC[C@@H]1[C@H]2CN(Cc3ccccc3)C[C@@H]12)C(O)(c1ccccc1)C1CCCC1 (stereo partly drawn) [Compound No. 62, (1α,5α,6α)-N-[3-benzyl-3-azabicyclo[3.1.0]-hexyl-6-(aminomethyl)-yl]-2-hydroxy-2-cyclopentyl-2-phenyl acetamide. Maleate salt], the Ki (M2 muscarinic receptor) is reported as 52.5 nM and the Ki (M3 muscarinic receptor [1]) is reported as 6.76 nM.

O=C(NC[C@@H]1[C@H]2CN(Cc3ccccc3)C[C@@H]12)C(O)(c1ccccc1)C1CCC1 (stereo partly drawn) [Compound No. 37, (1α,5α,6α)-N-[3-benzyl-3-azabicyclo[3.1.0]hexyl-6-(aminomethyl)-yl]-2hydroxy-2-cyclobutyl-2-phenylacetamide] was tested, and the Ki (M2 muscarinic receptor) was 57.5 nM, the Ki (M3 muscarinic receptor [1]) was 5.89 nM and the “Receptor Binding Assay Selectivity M2/M3” value (M3 muscarinic receptor [2]) was 8.

O=C(NCC1C2CN(Cc3ccccc3)CC12)C(O)(c1ccccc1)C1CCCC1 (stereo not drawn) [Compound No. 60, (1α,5α,6α)-N-[3-benzyl-3-azabicyclo[3.1.0]-hexyl-6-(aminomethyl)-yl]-2-hydroxy-2-cyclopentyl-2-phenyl acetamide hydrochloride salt] was tested, and the Ki (M2 muscarinic receptor) was 49 nM and the Ki (M3 muscarinic receptor [1]) was 5.25 nM.

In the case of CC(C)=CCCN1C[C@@H]2[C@@H](CNC(=O)C(O)(c3ccccc3)C3CCCCC3)[C@@H]2C1 (stereo partly drawn) [Compound No. 15, (1α,5α,6α)-N-[3-(4-methyl-3-pentenyl)-3-azabicyclo[3.1.0]hexyl-6-(aminomethyl)-yl]-2-hydroxy-2-cyclohexyl-2-phenyl acetamide], the Ki (M2 muscarinic receptor) is reported as 257 nM, the Ki (M3 muscarinic receptor [1]) is reported as 13.5 nM and the “Receptor Binding Assay Selectivity M2/M3” value (M3 muscarinic receptor [2]) is reported as 19.

For O=C(NC[C@@H]1[C@H]2CN(Cc3ccncc3)C[C@@H]12)C(O)(c1ccccc1)C1CCCC1 (stereo partly drawn) [Compound No. 48, (1α,5α,6α)-N-[3-(4-pyridylmethyl)-3-azabicyclo[3.1.0]hexyl-6-(aminomethyl)-yl]-2-hydroxy-2-cyclopentyl-2-phenylacetamide], the Ki (M2 muscarinic receptor) was > 1000 nM and the Ki (M3 muscarinic receptor [1]) was 72.4 nM.

With “(1α,5α,6α)-N-[3-(2-(3,4-methylenedioxyphenyl)ethyl)-3-azabicyclo[3.1.0]hexyl-6-(aminomethyl)-yl]-2-hydroxy-2-cyclopentyl-2-phenyl acetamide [Compound No. 13]” the “Receptor Binding Assay M2 pKi” value (M2 muscarinic receptor) was 6.48, the “Receptor Binding Assay M3 pKi” value (M3 muscarinic receptor [2]) was 7.28 and the “Receptor Binding Assay Selectivity M2/M3” value (M3 muscarinic receptor [2]) was 6.3.

For CC(c1ccccc1)N1CC2C(CNC(=O)C(O)(c3ccccc3)C3CCCC3)C2C1 (stereo not drawn) [Compound No. 22, (1α,5α,6α)-N-[3-(1-phenylethyl)-3-azabicyclo[3.1.0]hexyl-6-(aminomethyl)-yl]-2-hydroxy-2-cyclopentyl-2-phenyl acetamide], the Ki (M2 muscarinic receptor) was 87.1 nM, the Ki (M3 muscarinic receptor [1]) was 5.89 nM and the “Receptor Binding Assay Selectivity M2/M3” value (M3 muscarinic receptor [2]) was 14.8.

With O=C(NC[C@@H]1[C@H]2CN(Cc3cccnc3)C[C@@H]12)C(O)(c1ccccc1)C1CCCCC1 (stereo partly drawn) [Compound No. 45, (1α,5α,6α)-N-[3-(3-pyridylmethyl)-3-azabicyclo[3.1.0]hexyl-6-(aminomethyl)-yl]-2-hydroxy-2-cyclohexyl-2-phenyl acetamide] the Ki (M2 muscarinic receptor) was > 1000 nM and the Ki (M3 muscarinic receptor [1]) was 234 nM.

O=C(NC[C@@H]1[C@H]2CN(Cc3ccncc3)C[C@@H]12)C(O)(c1ccccc1)c1ccccc1 [Compound No. 50, (1α,5α,6α)-N-[3-(4-pyridylmethyl)-3-azabicyclo[3.1.0]hexyl-6-(aminomethyl)-yl]-2-hydroxy-2,2-diphenyl acetamide] was tested, and the Ki (M2 muscarinic receptor) was > 1000 nM and the Ki (M3 muscarinic receptor [1]) was 115 nM.

In the case of O=C(NC[C@@H]1[C@H]2CN(Cc3ccccc3)C[C@@H]12)C(O)(c1ccccc1)C1CC1 (stereo partly drawn) [Compound No. 38, (1α,5α,6α)-N-[3-benzyl-3-azabicyclo[3.1.0]hexyl-6-(aminomethyl)-yl]-2-hydroxy-2-cyclopropyl-2-phenylacetamide], the Ki (M2 muscarinic receptor) is reported as 427 nM, the Ki (M3 muscarinic receptor [1]) is reported as 64.6 nM and the “Receptor Binding Assay Selectivity M2/M3” value (M3 muscarinic receptor [2]) is reported as 6.6.

With “(1α,5α,6α)-N-[3-(2-pyridylmethyl)-3-azabicyclo[3.1.0]hexyl-6-(aminomethyl)-yl]-2-hydroxy-2-cyclopentyl-2-phenylacetamide [Compound No. 47]” the “Receptor Binding Assay M2 pKi” value (M2 muscarinic receptor) was 6.15 and the “Receptor Binding Assay M3 pKi” value (M3 muscarinic receptor [2]) was 7.42.

With CC(c1ccccc1)N1CC2C(CNC(=O)C(O)(c3ccccc3)C3CCCCC3)C2C1 (stereo not drawn) [Compound No. 21, (1α,5α,6α)-N-[3-(1-phenylethyl)-3-azabicyclo[3.1.0]hexyl-6-(aminomethyl)-yl]-2-hydroxy-2-cyclohexyl-2-phenyl acetamide] the Ki (M2 muscarinic receptor) was 257 nM, the Ki (M3 muscarinic receptor [1]) was 15.1 nM and the “Receptor Binding Assay Selectivity M2/M3” value (M3 muscarinic receptor [2]) was 17.

“(1α,5α,6α)-N-[3-(2-(3,4-methylenedioxyphenyl)ethyl)-3-azabicyclo[3.1.0]hexyl-6-(aminomethyl)-yl]-2-hydroxy-2-cyclohexyl-2-phenyl acetamide [Compound No. 14]” was tested, and the “Receptor Binding Assay M2 pKi” value (M2 muscarinic receptor) was 5.7, the “Receptor Binding Assay M3 pKi” value (M3 muscarinic receptor [2]) was 6.72 and the “Receptor Binding Assay Selectivity M2/M3” value (M3 muscarinic receptor [2]) was 10.5.

O=C(NCC1C2CN(Cc3ccncc3)CC12)C(O)(c1ccccc1)C1CCCCC1 (stereo not drawn) [Compound No. 46, (1α,5α,6α)-N-[3-(4pyridylmethyl)-3-azabicyclo[3.1.0]hexyl-6-(aminomethyl)-yl]-2-hydroxy-2-cyclohexyl-2-phenylacetamide] was tested, and the Ki (M2 muscarinic receptor) was > 1000 nM and the Ki (M3 muscarinic receptor [1]) was 67.6 nM.
